Laboratory results published in patent publication US20230372221A1, “USE OF THIOPYRIDINONE COMPOUNDS FOR PREVENTING THE FORMATION OF CUTANEOUS BLACKHEADS” (L'OREAL, priority 2020, published 2023).

Tested on: oxidation of the L-DOPA under the action of the bacterial extract (intracellular extract of Cutibacterium acnes CIP 53.117)
Assay: In vitro evaluation of the ability to inhibit the development of the colour (absorbance at 475 nm of L-DOPA + Cutibacterium acnes extract)
Assay type: biochemical
Conditions: for inhibiting the development of the colour (result in words): compared with Reference (absence of treatment); for optical density at 475 nm: 32° C.; for % inhib (percentage of inhibition of the formation of the coloured product): from initial rate of oxidation between 10 and 40 minutes vs reference composition
From the text: This method is based on the measurement of absorbance, over time, carried out directly on a composition formed of a mixture of intracellular extract of bacteria of Cutibacterium acnes type, of 3,4-dihydroxy-L-phenylalanine (L-DOPA) and of a test compound. The measurements are compared with those carried out for a mixture of an intracellular extract of bacteria of Cutibacterium acnes type and of 3,4-dihydroxy-L-phenylalanine (L-DOPA), in the absence of test compound (reference). The method is adapted from a method for the enzymatic assay of the tyrosinase activity (Behbahani et al., Microchemical Journal (1993), 47, 251), which is based on the absorbance properties at 475 nm of a coloured intermediate of the pathway for the biosynthesis of melanin starting from L-DOPA, namely dopachrome, a product of the oxidation of L-DOPA. An intracellular extract of bacteria of Cutibacterium acnes CIP 53.117 type stored at 4° C. in the lyophilized form is suspended in 1×PBS (supplied by Gibco BRL Life Technologies) at a concentration of 6 mg/ml. A solution of L-DOPA at a concentration of 0.5 mg/ml is prepared by bringing together L-DOPA (supplied by Sigma-Aldrich) and milliQ water, so as to have an L-DOPA concentration of 1 mg/ml, then diluting with 1×PBS (Dulbecco's Phosphate Buffered Saline, supplied by Gibco BRL Life Technologies). The mixture of 50 μl of these two solutions and of 100 μl of 1×PBS (Dulbecco's Phosphate Buffered Saline, supplied by Gibco BRL Life Technologies) results in a composition with a total volume of 200 μl containing L-DOPA (at a concentration of 125 μg/ml) and Cutibacterium acnes extract (at a concentration of 1.5 mg/ml). The test compositions and the reference composition are introduced separately into wells of a 96-well microplate suitable for reading in visible spectrophotometry, and placed at a temperature of 32° C. The formation of a coloured product is monitored over time by spectrophotometry. To do this, the absorbance, or optical density (O.D.), is measured at 475 nm from the time 0 to the time 2 hours by means of a Spectra Max M5e reader and the Spectra Max software (the time 0 corresponds to the introduction of the composition into the wells). The ability to inhibit the development of the colour of a given compound was assessed by comparing the absorbance measurements obtained for the test compositions with those obtained for the reference composition. More specifically, the inhibitory effect of the test compound was evaluated by comparing the initial rate of oxidation of the L-DOPA under the action of the bacterial extract at 475 nm for the test composition with that of the reference composition in order to obtain a corresponding percentage of inhibition. In practice, the initial rate (Vi) of the oxidation reaction is calculated from the linear part of the curve of the graph of the absorbance values. As this part lies between 10 and 40 minutes (see the graph in FIG. 1), the initial rate of the oxidation reaction is determined using the following relationship: [formula] The percentage of inhibition (% inhib) of a given compound with regard to the formation of the coloured product is subsequently obtained using the values of the initial rate of the oxidation reaction for the reference composition (Viref) and for the test composition ([…]) according to the following relationship: [formula] Within the meaning of the invention, a compound is regarded as having an inhibitory effect if the % inhib value is at least 15%.

[1] = test compound 12.5 μM, duration 0 minutes
[2] = test compound 12.5 μM, duration 10 minutes
[3] = test compound 12.5 μM, duration 20 minutes
[4] = test compound 12.5 μM, duration 30 minutes
[5] = test compound 12.5 μM, duration 40 minutes
[6] = test compound 12.5 μM, duration 60 minutes
[7] = test compound 12.5 μM, duration 80 minutes
[8] = test compound 12.5 μM, duration 100 minutes
[9] = test compound 12.5 μM, duration 120 minutes
[10] = test compound 25 μM, duration 0 minutes
[11] = test compound 25 μM, duration 10 minutes
[12] = test compound 25 μM, duration 20 minutes
[13] = test compound 25 μM, duration 30 minutes
[14] = test compound 25 μM, duration 40 minutes
[15] = test compound 25 μM, duration 60 minutes
[16] = test compound 25 μM, duration 80 minutes
[17] = test compound 25 μM, duration 100 minutes
[18] = test compound 25 μM, duration 120 minutes
[19] = test compound 50 μM, duration 0 minutes
[20] = test compound 50 μM, duration 10 minutes
[21] = test compound 50 μM, duration 20 minutes
[22] = test compound 50 μM, duration 30 minutes
[23] = test compound 50 μM, duration 40 minutes
[24] = test compound 50 μM, duration 60 minutes
[25] = test compound 50 μM, duration 80 minutes
[26] = test compound 50 μM, duration 100 minutes
[27] = test compound 50 μM, duration 120 minutes
[28] = test compound 100 μM, duration 0 minutes
[29] = test compound 100 μM, duration 10 minutes
[30] = test compound 100 μM, duration 20 minutes
[31] = test compound 100 μM, duration 30 minutes
[32] = test compound 100 μM, duration 40 minutes
[33] = test compound 100 μM, duration 60 minutes
[34] = test compound 100 μM, duration 80 minutes
[35] = test compound 100 μM, duration 100 minutes
[36] = test compound 100 μM, duration 120 minutes

## CCOC(=O)CNC(=O)c1ccc[nH]c1=S [Compound 5, Ethyl N-[(2-thioxo-1,2-dihydropyridin-3-yl)carbonyl]glycinate]
  inhibiting the development of the colour (result in words): very effective
[1]
  optical density at 475 nm: 0.0531
[2]
  optical density at 475 nm: 0.0535
[3]
  optical density at 475 nm: 0.0550
[4]
  optical density at 475 nm: 0.0559
[5]
  optical density at 475 nm: 0.0572
[6]
  optical density at 475 nm: 0.0601
[7]
  optical density at 475 nm: 0.0636
[8]
  optical density at 475 nm: 0.0659
[9]
  optical density at 475 nm: 0.0674
Test compound 12.5 μM
  % inhib (percentage of inhibition of the formation of the coloured product): 57%
[10]
  optical density at 475 nm: 0.0559
[11]
  optical density at 475 nm: 0.0567
[12]
  optical density at 475 nm: 0.0572
[13]
  optical density at 475 nm: 0.0575
[14]
  optical density at 475 nm: 0.0578
[15]
  optical density at 475 nm: 0.0588
[16]
  optical density at 475 nm: 0.0602
[17]
  optical density at 475 nm: 0.0627
[18]
  optical density at 475 nm: 0.0651
Test compound 25 μM
  % inhib (percentage of inhibition of the formation of the coloured product): 87%
[19]
  optical density at 475 nm: 0.0539
[20]
  optical density at 475 nm: 0.0554
[21]
  optical density at 475 nm: 0.0557
[22]
  optical density at 475 nm: 0.0560
[23]
  optical density at 475 nm: 0.0565
[24]
  optical density at 475 nm: 0.0573
[25]
  optical density at 475 nm: 0.0579
[26]
  optical density at 475 nm: 0.0585
[27]
  optical density at 475 nm: 0.0593
Test compound 50 μM
  % inhib (percentage of inhibition of the formation of the coloured product): 87%
[28]
  optical density at 475 nm: 0.0532
[29]
  optical density at 475 nm: 0.0534
[30]
  optical density at 475 nm: 0.0548
[31]
  optical density at 475 nm: 0.0550
[32]
  optical density at 475 nm: 0.0550
[33]
  optical density at 475 nm: 0.0555
[34]
  optical density at 475 nm: 0.0557
[35]
  optical density at 475 nm: 0.0561
[36]
  optical density at 475 nm: 0.0563
Test compound 100 μM
  % inhib (percentage of inhibition of the formation of the coloured product): 82%

## O=c1cc(CO)occ1O [Kojic acid, kojic acid, reference compound]
  inhibiting the development of the colour (result in words): does not make it possible to inhibit the development of the colour
Listed as kojic acid
  inhibiting the development of the colour (result in words): without effect
[28]
  optical density at 475 nm: 0.0599
[29]
  optical density at 475 nm: 0.0614
[30]
  optical density at 475 nm: 0.0646
[31]
  optical density at 475 nm: 0.0698
[32]
  optical density at 475 nm: 0.0741
[33]
  optical density at 475 nm: 0.0804
[34]
  optical density at 475 nm: 0.0837
[35]
  optical density at 475 nm: 0.0845
[36]
  optical density at 475 nm: 0.0843
Test compound 100 μM
  % inhib (percentage of inhibition of the formation of the coloured product): −1%

## CCOC(=O)CN(C)C(=O)c1ccc[nH]c1=S [Compound 4, Ethyl N-methyl-N-[(2-thioxo-1,2-dihydropyridin-3-yl)carbonyl]glycinate]
  inhibiting the development of the colour (result in words): very effective
[1]
  optical density at 475 nm: 0.0550
[2]
  optical density at 475 nm: 0.0571
[3]
  optical density at 475 nm: 0.0585
[4]
  optical density at 475 nm: 0.0604
[5]
  optical density at 475 nm: 0.0627
[6]
  optical density at 475 nm: 0.0659
[7]
  optical density at 475 nm: 0.0679
[8]
  optical density at 475 nm: 0.0696
[9]
  optical density at 475 nm: 0.0709
Test compound 12.5 μM
  % inhib (percentage of inhibition of the formation of the coloured product): 43%
[10]
  optical density at 475 nm: 0.0573
[11]
  optical density at 475 nm: 0.0586
[12]
  optical density at 475 nm: 0.0595
[13]
  optical density at 475 nm: 0.0609
[14]
  optical density at 475 nm: 0.0623
[15]
  optical density at 475 nm: 0.0650
[16]
  optical density at 475 nm: 0.0682
[17]
  optical density at 475 nm: 0.0695
[18]
  optical density at 475 nm: 0.0703
Test compound 25 μM
  % inhib (percentage of inhibition of the formation of the coloured product): 63%
[19]
  optical density at 475 nm: 0.0558
[20]
  optical density at 475 nm: 0.0574
[21]
  optical density at 475 nm: 0.0580
[22]
  optical density at 475 nm: 0.0591
[23]
  optical density at 475 nm: 0.0599
[24]
  optical density at 475 nm: 0.0617
[25]
  optical density at 475 nm: 0.0634
[26]
  optical density at 475 nm: 0.0654
[27]
  optical density at 475 nm: 0.0666
Test compound 50 μM
  % inhib (percentage of inhibition of the formation of the coloured product): 75%
[28]
  optical density at 475 nm: 0.0578
[29]
  optical density at 475 nm: 0.0579
[30]
  optical density at 475 nm: 0.0593
[31]
  optical density at 475 nm: 0.0601
[32]
  optical density at 475 nm: 0.0608
[33]
  optical density at 475 nm: 0.0618
[34]
  optical density at 475 nm: 0.0623
[35]
  optical density at 475 nm: 0.0627
[36]
  optical density at 475 nm: 0.0631
Test compound 100 μM
  % inhib (percentage of inhibition of the formation of the coloured product): 71%

## O=C(O)CNC(=O)c1ccc[nH]c1=S [Compound 2, N-[(2-thioxo-1,2-dihydropyridin-3-yl)carbonyl]glycine]
  inhibiting the development of the colour (result in words): very effective
[28]
  optical density at 475 nm: 0.0547
[29]
  optical density at 475 nm: 0.0561
[30]
  optical density at 475 nm: 0.0567
[31]
  optical density at 475 nm: 0.0569
[32]
  optical density at 475 nm: 0.0574
[33]
  optical density at 475 nm: 0.0578
[34]
  optical density at 475 nm: 0.0578
[35]
  optical density at 475 nm: 0.0578
[36]
  optical density at 475 nm: 0.0580
Test compound 100 μM
  % inhib (percentage of inhibition of the formation of the coloured product): 84%
